{"source": "paper PMC4697443", "about": "(Bioorganic & medicinal chemistry, 2015)", "system": "BV2 microglial cells", "note": "Marks after values point to notes of the source that are not given here.", "data": [{"substance": "3-Chloro-N-(1-methyl-1H-benzo[d]imidazol-2-yl)benzamide [Compound 7]", "values": [{"measurement": "Viability", "result": "1000^d μM"}]}]}
